Holding throughout (test): cell-based
One test concerns the target hNav1.7 (Homo sapiens, UniProt Q15858). The class given is cell-based.
The target in another test is hNav1.5 (Homo sapiens, UniProt Q14524).
Another test deals with hNav1.3 (Homo sapiens, UniProt Q9NY46).
The mark [1] stands for this setting: IonWorks Quattro, use-dependent block, hNav1.7, read-out: IWQ Use Nav1.7.
Where [2] appears, read: IonWorks Quattro, use-dependent block, hNav1.5, read-out: IWQ Use Nav1.5.
Setting [3] is: IonWorks Quattro, use-dependent block, hNav1.3, read-out: IWQ Use Nav1.3.

SMILES strings stand for the structures. Read-outs that look alike come from different tables or passages of the source. Positions of bridges follow the written chain, without caps; N, C: chain ends. Non-standard residues stand in square brackets, D forms with d. Residues, ends and D or L forms follow the SMILES beside them. Pra = C#CC[C@H](N)C(=O)O

Sequence of hNav1.5 (Q14524 whole entry, looked up): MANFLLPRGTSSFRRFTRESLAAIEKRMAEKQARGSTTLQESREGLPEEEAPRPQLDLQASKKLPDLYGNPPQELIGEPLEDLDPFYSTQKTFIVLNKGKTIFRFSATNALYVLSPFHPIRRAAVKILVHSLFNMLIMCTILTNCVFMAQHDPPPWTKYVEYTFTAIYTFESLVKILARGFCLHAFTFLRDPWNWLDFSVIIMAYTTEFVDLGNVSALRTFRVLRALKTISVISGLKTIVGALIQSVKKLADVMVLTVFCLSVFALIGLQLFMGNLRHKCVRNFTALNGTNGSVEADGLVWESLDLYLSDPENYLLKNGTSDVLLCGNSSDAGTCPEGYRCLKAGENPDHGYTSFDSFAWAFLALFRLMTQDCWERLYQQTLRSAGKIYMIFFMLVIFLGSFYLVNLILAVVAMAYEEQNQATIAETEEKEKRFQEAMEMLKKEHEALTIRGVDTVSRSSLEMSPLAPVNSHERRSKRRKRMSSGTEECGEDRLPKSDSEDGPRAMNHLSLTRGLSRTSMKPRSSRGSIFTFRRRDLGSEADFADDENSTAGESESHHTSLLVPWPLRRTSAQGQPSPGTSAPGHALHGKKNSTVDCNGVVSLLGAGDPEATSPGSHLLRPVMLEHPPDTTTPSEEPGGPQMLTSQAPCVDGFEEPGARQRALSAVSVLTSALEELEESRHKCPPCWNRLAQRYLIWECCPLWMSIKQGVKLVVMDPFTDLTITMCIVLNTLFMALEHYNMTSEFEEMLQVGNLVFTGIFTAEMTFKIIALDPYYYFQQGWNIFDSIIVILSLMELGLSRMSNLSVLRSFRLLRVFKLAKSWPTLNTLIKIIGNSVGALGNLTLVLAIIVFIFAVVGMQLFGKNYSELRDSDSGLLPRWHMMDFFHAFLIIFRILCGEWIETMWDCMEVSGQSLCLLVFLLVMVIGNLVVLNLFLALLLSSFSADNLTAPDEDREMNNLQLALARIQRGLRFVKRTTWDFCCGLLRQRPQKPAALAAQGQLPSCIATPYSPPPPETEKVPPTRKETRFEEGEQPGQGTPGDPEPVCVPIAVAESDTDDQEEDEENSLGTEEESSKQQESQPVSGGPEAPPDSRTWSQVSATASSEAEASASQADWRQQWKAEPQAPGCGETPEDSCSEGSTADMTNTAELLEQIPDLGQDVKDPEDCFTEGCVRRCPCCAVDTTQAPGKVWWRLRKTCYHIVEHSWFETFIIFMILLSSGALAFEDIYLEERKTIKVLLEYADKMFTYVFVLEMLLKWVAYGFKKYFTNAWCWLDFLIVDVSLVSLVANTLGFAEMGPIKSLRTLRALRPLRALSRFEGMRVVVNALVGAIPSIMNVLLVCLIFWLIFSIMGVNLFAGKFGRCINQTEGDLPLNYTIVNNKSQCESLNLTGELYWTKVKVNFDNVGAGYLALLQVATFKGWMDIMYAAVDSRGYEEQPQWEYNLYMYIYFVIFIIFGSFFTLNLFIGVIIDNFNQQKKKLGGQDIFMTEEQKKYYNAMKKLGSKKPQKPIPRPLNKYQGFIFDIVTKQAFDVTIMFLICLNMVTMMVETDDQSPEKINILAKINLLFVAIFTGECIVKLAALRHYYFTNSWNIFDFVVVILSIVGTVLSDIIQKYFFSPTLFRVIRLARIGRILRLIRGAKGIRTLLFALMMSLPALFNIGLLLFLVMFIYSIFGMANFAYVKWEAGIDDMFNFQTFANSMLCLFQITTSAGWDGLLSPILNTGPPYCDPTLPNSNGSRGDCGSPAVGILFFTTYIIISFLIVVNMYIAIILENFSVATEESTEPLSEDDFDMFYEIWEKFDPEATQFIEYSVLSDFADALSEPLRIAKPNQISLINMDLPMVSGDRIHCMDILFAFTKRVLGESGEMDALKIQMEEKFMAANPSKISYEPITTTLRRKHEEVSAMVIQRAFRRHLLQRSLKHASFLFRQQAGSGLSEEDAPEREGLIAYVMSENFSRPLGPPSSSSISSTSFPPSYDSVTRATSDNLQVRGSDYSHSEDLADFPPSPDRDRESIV
Sequence of hNav1.3 (Q9NY46 whole entry, looked up): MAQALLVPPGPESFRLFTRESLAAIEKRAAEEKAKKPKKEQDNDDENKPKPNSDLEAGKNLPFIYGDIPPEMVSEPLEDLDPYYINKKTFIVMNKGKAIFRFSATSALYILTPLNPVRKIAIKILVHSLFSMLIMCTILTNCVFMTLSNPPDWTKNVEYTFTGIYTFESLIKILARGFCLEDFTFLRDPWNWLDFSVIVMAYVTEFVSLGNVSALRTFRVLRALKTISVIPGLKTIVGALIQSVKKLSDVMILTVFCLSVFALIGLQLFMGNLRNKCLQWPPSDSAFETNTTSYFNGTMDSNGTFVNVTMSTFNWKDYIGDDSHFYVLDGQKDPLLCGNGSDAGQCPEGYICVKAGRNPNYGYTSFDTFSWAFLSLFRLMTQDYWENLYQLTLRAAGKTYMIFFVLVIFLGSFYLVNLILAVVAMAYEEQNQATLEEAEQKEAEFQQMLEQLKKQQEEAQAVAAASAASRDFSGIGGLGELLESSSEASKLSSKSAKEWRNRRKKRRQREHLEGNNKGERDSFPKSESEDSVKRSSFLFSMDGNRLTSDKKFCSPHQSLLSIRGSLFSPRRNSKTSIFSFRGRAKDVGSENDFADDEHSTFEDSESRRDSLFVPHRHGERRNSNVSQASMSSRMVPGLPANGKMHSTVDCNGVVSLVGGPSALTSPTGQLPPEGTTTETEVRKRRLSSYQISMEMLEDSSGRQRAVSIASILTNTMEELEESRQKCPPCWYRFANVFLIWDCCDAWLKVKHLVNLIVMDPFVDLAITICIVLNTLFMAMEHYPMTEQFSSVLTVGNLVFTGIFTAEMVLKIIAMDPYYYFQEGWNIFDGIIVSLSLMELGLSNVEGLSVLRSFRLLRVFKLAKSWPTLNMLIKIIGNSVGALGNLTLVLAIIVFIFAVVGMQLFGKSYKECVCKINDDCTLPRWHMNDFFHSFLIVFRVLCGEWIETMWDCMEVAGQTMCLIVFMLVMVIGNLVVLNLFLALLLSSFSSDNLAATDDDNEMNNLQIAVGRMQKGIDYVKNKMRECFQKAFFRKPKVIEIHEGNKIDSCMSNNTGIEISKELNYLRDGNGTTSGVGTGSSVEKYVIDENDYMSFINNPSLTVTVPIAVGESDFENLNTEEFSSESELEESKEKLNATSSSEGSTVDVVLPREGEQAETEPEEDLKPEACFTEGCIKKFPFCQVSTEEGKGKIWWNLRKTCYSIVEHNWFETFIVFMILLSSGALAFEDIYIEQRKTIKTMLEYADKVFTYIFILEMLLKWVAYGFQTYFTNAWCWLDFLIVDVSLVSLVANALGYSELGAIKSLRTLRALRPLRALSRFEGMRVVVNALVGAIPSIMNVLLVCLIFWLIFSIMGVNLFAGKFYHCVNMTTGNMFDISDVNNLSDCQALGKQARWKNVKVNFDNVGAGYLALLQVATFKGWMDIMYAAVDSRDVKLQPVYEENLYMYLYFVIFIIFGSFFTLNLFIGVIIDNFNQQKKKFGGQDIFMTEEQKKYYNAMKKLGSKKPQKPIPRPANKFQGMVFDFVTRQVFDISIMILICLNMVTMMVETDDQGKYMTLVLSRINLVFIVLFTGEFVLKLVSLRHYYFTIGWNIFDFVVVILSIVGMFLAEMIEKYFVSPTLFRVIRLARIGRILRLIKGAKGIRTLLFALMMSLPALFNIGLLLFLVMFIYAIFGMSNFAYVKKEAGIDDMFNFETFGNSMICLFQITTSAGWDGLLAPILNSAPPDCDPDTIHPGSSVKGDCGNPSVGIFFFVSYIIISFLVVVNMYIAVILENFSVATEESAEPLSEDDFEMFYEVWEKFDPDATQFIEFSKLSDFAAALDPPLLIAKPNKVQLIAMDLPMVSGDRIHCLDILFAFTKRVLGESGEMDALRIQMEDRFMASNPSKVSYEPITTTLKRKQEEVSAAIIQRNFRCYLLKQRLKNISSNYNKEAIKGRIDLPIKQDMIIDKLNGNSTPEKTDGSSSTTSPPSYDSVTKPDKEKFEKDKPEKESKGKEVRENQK

With `CC[C@H](C)[C@@H]1NC(=O)[C@@H]2CSSC[C@@H]3NC(=O)[C@H](C(C)C)NC(=O)[C@H](CC(C)C)NC(=O)[C@H](CC(N)=O)NC(=O)[C@@H]4CCCN4C(=O)[C@H](CCCNC(=N)N)NC(=O)[C@H](CSSC[C@H](NC(=O)[C@@H](N)CC(=O)O)C(=O)N[C@@H](CC(C)C)C(=O)NCC(=O)N[C@@H](Cc4ccccc4)C(=O)N[C@@H](CCSC)C(=O)N[C@@H](CCCNC(=N)N)C(=O)N[C@@H](CCCCN)C(=O)N2)NC(=O)[C@H](CSSC[C@@H](C(=O)N[C@@H](CCCCN)C(=O)N[C@@H](Cc2ccc(O)cc2)C(=O)N[C@H](C(=O)N[C@@H](Cc2ccccc2)C(N)=O)C(C)C)NC(=O)[C@H](Cc2c[nH]c4ccccc24)NC(=O)[C@H](CCCNC(=N)N)NC(=O)[C@H](Cc2c[nH]cn2)NC(=O)[C@H](CC(C)C)NC(=O)[C@H](CCCNC(=N)N)NC(=O)[C@H](CO)NC3=O)NC(=O)[C@H](CCCCN)NC(=O)[C@H](CC(=O)O)NC(=O)[C@H](CC(N)=O)NC(=O)[C@H](CC(=O)O)NC(=O)[C@@H]2CCCN2C1=O` [compound 445] (H-DCLGFMRKCIPDNDKCCRPNLVCSRLHRWCKYVF-NH2; disulfide 2-17, 9-23, 16-30), the IC50 at hNav1.7 (setting [1]) is 30 nM; at hNav1.5 (setting [2]) it was more than 5 µM; at hNav1.3 (setting [3]), 60 nM.

Take `CC[C@H](C)[C@@H]1NC(=O)[C@@H]2CSSC[C@@H]3NC(=O)[C@H](C(C)C)NC(=O)[C@H](CC(C)C)NC(=O)[C@H](CC(N)=O)NC(=O)[C@@H]4CCCN4C(=O)[C@H](CCCNC(=N)N)NC(=O)[C@H](CSSC[C@H](NC(=O)[C@@H](N)CC(=O)O)C(=O)N[C@@H](CC(C)C)C(=O)NCC(=O)N[C@@H](C)C(=O)N[C@@H](Cc4ccccc4)C(=O)N[C@@H](CCCNC(=N)N)C(=O)N[C@@H](CCCCN)C(=O)N2)NC(=O)[C@H](CSSC[C@@H](C(=O)N[C@@H](CCCCN)C(=O)N[C@@H](Cc2ccc(O)cc2)C(=O)N[C@H](C(=O)N[C@@H](Cc2ccccc2)C(N)=O)C(C)C)NC(=O)[C@H](Cc2c[nH]c4ccccc24)NC(=O)[C@H](CCCNC(=N)N)NC(=O)[C@H](Cc2cnc[nH]2)NC(=O)[C@H](CC(C)C)NC(=O)[C@H](CCCNC(=N)N)NC(=O)[C@H](CO)NC3=O)NC(=O)[C@H](CCCCN)NC(=O)[C@H](CC(=O)O)NC(=O)[C@H](CC(N)=O)NC(=O)[C@H](CC(=O)O)NC(=O)[C@@H]2CCCN2C1=O` [SEQ ID NO: 262, [Ala5,Phe6,Leu26,Arg28]GpTx-1] (H-DCLGAFRKCIPDNDKCCRPNLVCSRLHRWCKYVF-NH2; disulfide 2-17, 9-23, 16-30): the IC50 came to 50 nM against hNav1.7, 5 µM at hNav1.5 (IWQ Use Nav1.5 (μM)) and 40 nM against hNav1.3.

Take `CC[C@H](C)[C@@H]1NC(=O)[C@@H]2CSSC[C@@H]3NC(=O)[C@H](C(C)C)NC(=O)[C@H](CC(C)C)NC(=O)[C@H](CC(N)=O)NC(=O)[C@@H]4CCCN4C(=O)[C@H](CCCNC(=N)N)NC(=O)[C@H](CSSC[C@H](NC(=O)[C@@H](N)CC(=O)O)C(=O)N[C@@H](CC(C)C)C(=O)NCC(=O)N[C@@H](Cc4ccccc4)C(=O)N[C@@H](CCSC)C(=O)N[C@@H](CCCNC(=N)N)C(=O)N[C@@H](CCCCN)C(=O)N2)NC(=O)[C@H](CSSC[C@@H](C(=O)N[C@@H](CCCCN)C(=O)N[C@@H](Cc2c[nH]c4ccccc24)C(=O)N[C@@H](Cc2c[nH]c4ccccc24)C(=O)N[C@@H](Cc2ccccc2)C(N)=O)NC(=O)[C@H](Cc2c[nH]c4ccccc24)NC(=O)[C@H](CCCCN)NC(=O)[C@H](Cc2c[nH]cn2)NC(=O)[C@H]([C@@H](C)O)NC(=O)[C@H](CCCNC(=N)N)NC(=O)[C@H](CO)NC3=O)NC(=O)[C@H](CCCCN)NC(=O)[C@H](CC(=O)O)NC(=O)[C@H](CC(N)=O)NC(=O)[C@H](CC(=O)O)NC(=O)[C@@H]2CCCN2C1=O` [compound 450] (H-DCLGFMRKCIPDNDKCCRPNLVCSRTHKWCKWWF-NH2; disulfide 2-17, 9-23, 16-30): the IC50 worked out at 50 nM on hNav1.7 (setting [1]), 11.5 µM on hNav1.5 (setting [2]) and 30 nM at hNav1.3 (setting [3]).

With `CC[C@H](C)[C@@H]1NC(=O)[C@@H]2CSSC[C@@H]3NC(=O)[C@H](C(C)C)NC(=O)[C@H](CC(C)C)NC(=O)[C@H](CC(N)=O)NC(=O)[C@@H]4CCCN4C(=O)[C@H](CCCNC(=N)N)NC(=O)[C@H](CSSC[C@H](NC(=O)[C@H](CC(=O)O)NC(=O)[C@H](CO)NC(=O)CN)C(=O)N[C@@H](CC(C)C)C(=O)NCC(=O)N[C@@H](C)C(=O)N[C@@H](Cc4ccccc4)C(=O)N[C@@H](CCCNC(=N)N)C(=O)N[C@@H](CCCCN)C(=O)N2)NC(=O)[C@H](CSSC[C@@H](C(=O)N[C@@H](CCCCN)C(=O)N[C@@H](Cc2ccc(O)cc2)C(=O)N[C@H](C(=O)N[C@@H](Cc2ccccc2)C(=O)O)C(C)C)NC(=O)[C@H](Cc2c[nH]c4ccccc24)NC(=O)[C@H](CCCNC(=N)N)NC(=O)[C@H](Cc2c[nH]cn2)NC(=O)[C@H]([C@@H](C)O)NC(=O)[C@H](CCCNC(=N)N)NC(=O)[C@H](CO)NC3=O)NC(=O)[C@H](CCCCN)NC(=O)[C@H](CC(=O)O)NC(=O)[C@H](CC(N)=O)NC(=O)[C@H](CC(=O)O)NC(=O)[C@@H]2CCCN2C1=O` [compound 821] (H-GSDCLGAFRKCIPDNDKCCRPNLVCSRTHRWCKYVF-OH; disulfide 4-19, 11-25, 18-32), the figures for the IC50 on hNav1.7 (setting [1]), on hNav1.5 (setting [2]) and at hNav1.3 (setting [3]) were 3200 nM, more than 5 µM and 3200 nM, respectively.

Turning to `CC[C@H](C)[C@@H]1NC(=O)[C@@H]2CSSC[C@@H]3NC(=O)[C@H](C(C)C)NC(=O)[C@H](CC(C)C)NC(=O)[C@H](CC(N)=O)NC(=O)[C@@H]4CCCN4C(=O)[C@H](CCCNC(=N)N)NC(=O)[C@H](CSSC[C@H](NC(=O)[C@@H](N)CC(=O)O)C(=O)N[C@@H](CC(C)C)C(=O)NCC(=O)N[C@@H](Cc4ccccc4)C(=O)N[C@@H](CCSC)C(=O)N[C@@H](CCCNC(=N)N)C(=O)N[C@@H](CCCCN)C(=O)N2)NC(=O)[C@H](CSSC[C@@H](C(=O)N[C@@H](CCCCN)C(=O)N[C@@H](Cc2ccc(O)cc2)C(=O)N[C@H](C(=O)N[C@@H](Cc2ccccc2)C(N)=O)C(C)C)NC(=O)[C@H](Cc2c[nH]c4ccccc24)NC(=O)[C@H](CCCCN)NC(=O)[C@H](Cc2cnc[nH]2)NC(=O)[C@H](CCC(=O)O)NC(=O)[C@H](CCCNC(=N)N)NC(=O)[C@H](CO)NC3=O)NC(=O)[C@H](CCCCN)NC(=O)[C@H](CC(=O)O)NC(=O)[C@H](CC(N)=O)NC(=O)[C@H](CC(=O)O)NC(=O)[C@@H]2CCCN2C1=O` [SEQ ID NO: 152, [Glu26]GpTx-1] (H-DCLGFMRKCIPDNDKCCRPNLVCSREHKWCKYVF-NH2; disulfide 2-17, 9-23, 16-30), the IC50 at hNav1.7 (Table 22, IonWorks Quattro, use, […], read-out: IWQ Use Nav1.7) amounted to 680 nM; on hNav1.5 (IWQ Use Nav1.5 (μM)), 17.2 µM; at hNav1.3 (Table 22, IonWorks Quattro, use, […], read-out: IWQ Use Nav1.3) it was 710 nM.

Regarding `CC[C@H](C)[C@@H]1NC(=O)[C@@H]2CSSC[C@@H]3NC(=O)[C@H](C(C)C)NC(=O)[C@H](CC(C)C)NC(=O)[C@H](CC(N)=O)NC(=O)[C@@H]4CCCN4C(=O)[C@H](CCCNC(=N)N)NC(=O)[C@H](CSSC[C@H](NC(=O)[C@@H](N)CC(=O)O)C(=O)N[C@@H](CC(C)C)C(=O)NCC(=O)N[C@@H](Cc4ccccc4)C(=O)N[C@@H](CCSC)C(=O)N[C@@H](CCCNC(=N)N)C(=O)N[C@@H](CCCCN)C(=O)N2)NC(=O)[C@H](CSSC[C@@H](C(=O)N[C@@H](CCCCN)C(=O)N[C@@H](Cc2c[nH]c4ccccc24)C(=O)N[C@H](C(=O)N[C@@H](Cc2ccccc2)C(N)=O)C(C)C)NC(=O)[C@H](Cc2c[nH]c4ccccc24)NC(=O)[C@H](CCCCN)NC(=O)[C@H](Cc2c[nH]cn2)NC(=O)[C@H]([C@@H](C)O)NC(=O)[C@H](CCCNC(=N)N)NC(=O)[C@H](CO)NC3=O)NC(=O)[C@H](CCCCN)NC(=O)[C@H](CC(=O)O)NC(=O)[C@H](CC(N)=O)NC(=O)[C@H](CC(=O)O)NC(=O)[C@@H]2CCCN2C1=O` [compound 85] (H-DCLGFMRKCIPDNDKCCRPNLVCSRTHKWCKWVF-NH2; disulfide 2-17, 9-23, 16-30), the IC50 at hNav1.7 (Table 25, IonWorks Quattro, use, […], read-out: IWQ Use Nav1.7) was determined as 90 nM; on hNav1.5 (Table 25, IonWorks Quattro, use, […], read-out: IWQ Use Nav1.5) it was 6.74 µM; on hNav1.3 (Table 25, IonWorks Quattro, use, […], read-out: IWQ Use Nav1.3) it was 160 nM.

Turning to `C#CC[C@@H]1NC(=O)[C@H](CC(=O)O)NC(=O)[C@@H]2CCCN2C(=O)[C@H]([C@@H](C)CC)NC(=O)[C@@H]2CSSC[C@@H]3NC(=O)[C@H](C(C)C)NC(=O)[C@H](CC(C)C)NC(=O)[C@H](CC(N)=O)NC(=O)[C@@H]4CCCN4C(=O)[C@H](CCCNC(=N)N)NC(=O)[C@H](CSSC[C@H](NC(=O)[C@@H](N)CC(=O)O)C(=O)N[C@@H](CC(C)C)C(=O)NCC(=O)N[C@@H](C)C(=O)N[C@@H](CC(C)C)C(=O)N[C@@H](CCCNC(=N)N)C(=O)N[C@@H](CCCCN)C(=O)N2)NC(=O)[C@H](CSSC[C@@H](C(=O)N[C@@H](CCCCN)C(=O)N[C@@H](Cc2ccc(O)cc2)C(=O)N[C@H](C(=O)N[C@@H](Cc2ccccc2)C(N)=O)C(C)C)NC(=O)[C@H](Cc2c[nH]c4ccccc24)NC(=O)[C@H](CCCNC(=N)N)NC(=O)[C@H](Cc2c[nH]cn2)NC(=O)[C@H](CC(C)C)NC(=O)[C@H](CCCNC(=N)N)NC(=O)[C@H](CO)NC3=O)NC(=O)[C@H](CCCCN)NC(=O)[C@H](CC(=O)O)NC1=O` [compound 796] (H-DCLGALRKCIPD[Pra]DKCCRPNLVCSRLHRWCKYVF-NH2; disulfide 2-17, 9-23, 16-30), the IC50 amounted to 220 nM on hNav1.7 (setting [1]), 36.4 µM on hNav1.5 (setting [2]) and 480 nM at hNav1.3 (setting [3]).

The values above are taken from US9340590B2 (priority 2011, dated 2016).
